Source: patent US20260365671A1, “HETEROCYCLIC COMPOUND” (Takeda Pharmaceutical Company Limited, priority 2022, published 2026)
pIC50: −log10 of the molar value.

What was measured:
NLRP3 inflammasome = molecular target: T1, NLRP3 inflammasome (Homo sapiens, UniProt Q96P20); test: IL-1β TR-FRET assay (THP-1 cells differentiated to macrophages with IFN-γ, LPS primed, ATP activated; HTRF); format: cell-based; conditions: THP-1 macrophages, 50 ng/mL LPS priming, compound 30 min, 20 mM ATP 2 hours
T1 construct: IL-1beta HTRF
T1 sequence (Q96P20 whole entry): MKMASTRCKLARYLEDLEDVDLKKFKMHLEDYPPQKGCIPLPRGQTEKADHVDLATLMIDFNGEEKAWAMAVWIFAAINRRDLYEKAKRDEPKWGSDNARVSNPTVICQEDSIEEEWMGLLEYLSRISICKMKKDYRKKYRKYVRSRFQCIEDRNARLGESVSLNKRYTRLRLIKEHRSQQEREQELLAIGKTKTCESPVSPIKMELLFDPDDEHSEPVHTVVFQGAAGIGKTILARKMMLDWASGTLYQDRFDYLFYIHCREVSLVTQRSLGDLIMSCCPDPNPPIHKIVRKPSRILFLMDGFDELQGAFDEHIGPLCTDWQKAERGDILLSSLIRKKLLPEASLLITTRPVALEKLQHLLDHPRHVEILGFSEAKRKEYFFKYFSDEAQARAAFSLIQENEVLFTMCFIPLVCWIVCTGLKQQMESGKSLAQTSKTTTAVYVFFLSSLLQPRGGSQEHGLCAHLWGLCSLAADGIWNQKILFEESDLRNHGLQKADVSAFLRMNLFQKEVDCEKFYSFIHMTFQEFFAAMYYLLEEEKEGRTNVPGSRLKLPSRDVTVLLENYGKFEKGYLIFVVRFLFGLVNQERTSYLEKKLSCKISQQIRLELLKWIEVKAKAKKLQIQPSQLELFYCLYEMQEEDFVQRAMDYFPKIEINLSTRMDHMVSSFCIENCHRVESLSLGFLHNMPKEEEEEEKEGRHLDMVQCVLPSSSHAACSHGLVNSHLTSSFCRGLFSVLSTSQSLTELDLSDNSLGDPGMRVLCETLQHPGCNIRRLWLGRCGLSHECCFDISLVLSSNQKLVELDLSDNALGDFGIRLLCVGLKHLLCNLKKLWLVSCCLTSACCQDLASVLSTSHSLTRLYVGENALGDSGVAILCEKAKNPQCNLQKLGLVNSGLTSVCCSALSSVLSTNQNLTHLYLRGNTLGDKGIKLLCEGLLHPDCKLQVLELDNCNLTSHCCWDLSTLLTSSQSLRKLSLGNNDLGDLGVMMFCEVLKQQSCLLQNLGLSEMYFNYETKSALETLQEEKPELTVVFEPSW
How it was run: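 IL-1β release was read by HTRF after 16–24 h antibody incubation at room temperature, using supernatants from THP-1-derived macrophages (IFN-γ 25 ng/mL, LPS 50 ng/mL priming) given compound 30 min and then 20 mM ATP for 2 h. % inhibition versus concentration was fitted logistically for IC50.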

NF-κB pathway = test: TNF-α assay (THP-1 cells differentiated to macrophages with IFN-γ, NF-κB pathway activated with LPS; ELISA); format: cell-based, Human; conditions: compound 30 min, 50 ng/mL LPS 3 hours
How it was run: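 TNF-α release measured by ELISA after 3 h stimulation with 50 ng/mL LPS, following 30 min compound pretreatment (37 °C, no FBS). Cells were THP-1 macrophages primed with IFN-γ 25 ng/mL for 24 h. IC50 derived by logistic curve fit.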

[1] = Homo sapiens, THP-1, THP-1 macrophages

pIC50 (NLRP3 inflammasome) | pIC50 (NF-κB pathway; [1]) | pIC50 (NF-κB pathway; THP-1 macrophages) | Compound
8.55 | < 4.52 |  | CCN1C[C@H](F)C[C@@H](Nc2nc3nn(-c4c(O)cc(C)cc4OC(F)F)cc3s2)C1 [Example 51, 3-(difluoromethoxy)-2-(5-{[(3R,5R)-1-ethyl-5-fluoropiperidin-3-yl]amino}-2H-pyrazolo[3,4-d][1,3]thiazol-2-yl)-5-methylphenol]
6.17 | < 5.00 |  | Cc1cc(C)c(-n2cc3sc(N[C@H]4C[C@](C)(O)C4)nc3n2)c(O)c1 [Example 32, 2-{5-[(trans-3-hydroxy-3-methylcyclobutyl)amino]-2H-pyrazolo[3,4-d][1,3]thiazol-2-yl}-3,5-dimethylphenol]
6.57 | < 4.52 |  | Cc1cc(C)c(-n2cc3sc(NC4CCN(C)C4)nc3n2)c(O)c1 (centres unmarked) [Example 92, 3,5-dimethyl-2-{5-[(1-methylpyrrolidin-3-yl)amino]-2H-pyrazolo[3,4-d][1,3]thiazol-2-yl}phenol]
7.80 | < 4.52 |  | CN1C[C@H](F)C[C@@H](Nc2nc3nn(-c4c(O)cc(Cl)cc4C(F)F)cc3s2)C1 [Example 75, 5-chloro-3-(difluoromethyl)-2-(5-{[(3R,5R)-5-fluoro-1-methylpiperidin-3-yl]amino}-2H-pyrazolo [3,4-d][1,3]thiazol-2-yl)phenol]
7.11 | < 5.00 |  | Cc1cc(O)c(-n2cc3sc(NC[C@@H](C)O)nc3n2)c(C2CC2)c1 [Example 64, 3-cyclopropyl-2-(5-{[(2R)-2-hydroxypropyl]amino}-2H-pyrazolo[3,4-d][1,3]thiazol-2-yl)-5-methylphenol]
5.80 | < 4.52 |  | CO[C@@H]1C[C@@H](Nc2nc3nn(-c4c(C)cc(C)cc4O)cc3s2)CN(C)C1 [Example 76]
6.89 | < 5.00 |  | COc1cc(C)cc(O)c1-n1cc2sc(N[C@@H]3C[C@@H](F)CN(C)C3)nc2n1 [Example 48, 2-(5-{[(3R,5R)-5-fluoro-1-methylpiperidin-3-yl]amino}-2H-pyrazolo[3,4-d][1,3]thiazol-2-yl)-3-methoxy-5-methylphenol]
6.31 | < 4.52 |  | Cc1cc(C)c(-n2cc3sc(NC4CCC(=O)N(C)C4)nc3n2)c(O)c1 (centres unmarked) [Example 115, 5-{[2-(2-hydroxy-4,6-dimethylphenyl)-2H-pyrazolo[3,4-d][1,3]thiazol-5-yl]amino}-1-methylpiperidin-2-one]
5.38 | < 4.52 |  | Cc1cc(C)c(-n2cc3sc(N[C@H]4C[C@H](F)CN(C)C4)nc3n2)c(O)c1 [Example 180, 2-(5-{[(3S,5S)-5-fluoro-1-methylpiperidin-3-yl]amino}-2H-pyrazolo[3,4-d][1,3]thiazol-2-yl)-3,5-dimethylphenol]
5.74 | < 4.52 |  | CO[C@H]1CN(C)C[C@@H]1Nc1nc2nn(-c3c(C)cc(C)cc3O)cc2s1 [Example 40, 2-(5-{[(3S,4S)-4-methoxy-1-methylpyrrolidin-3-yl]amino}-2H-pyrazolo[3,4-d][1,3]thiazol-2-yl)-3,5-dimethylphenol]
8.09 | < 4.52 |  | Cc1cc(C)c(-n2cc3sc(N[C@@H]4C[C@@H](F)CN(C)C4)nc3n2)c(O)c1 [Example 3, 2-(5-{[(3R,5R)-5-fluoro-1-methylpiperidin-3-yl]amino}-2H-pyrazolo[3,4-d][1,3]thiazol-2-yl)-3,5-dimethylphenol]
7.34 |  | < 5.00 | Cc1cc(C)c(-n2cc3sc(N[C@H]4CN(C)CCC4F)nc3n2)c(O)c1 (stereo in doubt) [Example 10, 2-(5-{[(3S,4S)-4-fluoro-1-methylpiperidin-3-yl]amino}-2H-pyrazolo[3,4-d][1,3]thiazol-2-yl)-3,5-dimethylphenol]
6.80 | < 5.00 |  | Cc1cc(C)c(-n2cc3sc(NCC(O)C(F)F)nc3n2)c(O)c1 (centres unmarked) [Example 171, 2-{5-[(3,3-difluoro-2-hydroxypropyl)amino]-2H-pyrazolo[3,4-d][1,3]thiazol-2-yl}-3,5-dimethylphenol]
7.43 | < 4.52 |  | Cc1cc(C)c(-n2cc3sc(N[C@H]4CN(C)C[C@@H]4F)nc3n2)c(O)c1 [Example 80, 2-(5-{[(3S,4S)-4-fluoro-1-methylpyrrolidin-3-yl]amino}-2H-pyrazolo[3,4-d][1,3]thiazol-2-yl)-3,5-dimethylphenol]
6.09 | < 4.52 |  | CNC(=O)N1CCCC(Nc2nc3nn(-c4c(C)cc(C)cc4O)cc3s2)C1 (centres unmarked) [Example 111, 3-{[2-(2-hydroxy-4,6-dimethylphenyl) 2H-pyrazolo[3,4-d][1,3]thiazol-5-yl]amino}-N-methyl-piperidine-1-carboxamide]
7.92 | < 4.52 |  | Cc1cc(O)c(-n2cc3sc(N[C@@H]4C[C@@H](F)CN(C)C4)nc3n2)c(OC(F)F)c1 [Example 50, 3-(difluoromethoxy)-2-(5-{[(3R,5R)-5-fluoro-1-methylpiperidin-3-yl]amino}-2H-pyrazolo[3,4-d][1,3]thiazol-2-yl)-5-methylphenol]
6.92 | < 5.00 |  | Cc1cc(C)c(-n2cc3sc(N[C@H]4CNC[C@H](F)C4)nc3n2)c(O)c1 [Example 62, 2-(5-{[(3R,5R)-5-fluoropiperidin-3-yl]amino}-2H-pyrazolo[3,4-d][1,3]thiazol-2-yl)-3,5-dimethylphenol]
6.07 | < 4.52 |  | Cc1cc(C)c(-n2cc3sc(N[C@H]4COC[C@H]4F)nc3n2)c(O)c1 [Example 144, 2-(5-{[(3R,4R)-4-fluorooxolan-3-yl]amino}-2H-pyrazolo [3,4-d][1,3]thiazol-2-yl)-3,5-dimethylphenol or 2-(5-{[(3S,4S)-4-fluorooxolan-3-yl]amino}-2H-pyrazolo[3,4-d][1,3]thiazol-2-yl)-3,5-dimethylphenol (tR1)]
6.09 | < 4.52 |  | Cc1cc(C)c(-n2cc3sc(NC4CCN(C)C4=O)nc3n2)c(O)c1 (centres unmarked) [Example 103, 3-{[2-(2-hydroxy-4,6-dimethylphenyl)-2H-pyrazolo[3,4-d][1,3]thiazol-5-yl]amino}-1-methylpyrrolidin-2-one]
8.44 | < 5.00 |  | Cc1cc(F)cc(O)c1-n1cc2sc(N[C@@H]3CCCN(C4CC4)C3)nc2n1 [Example 12, 2-(5-{[(3R)-1-cyclopropylpiperidin-3-yl]amino}-2H-pyrazolo[3,4-d][1,3]thiazol-2-yl)-5-fluoro-3-methylphenol]
6.18 | < 5.00 |  | COC(=O)N1CCC(Nc2nc3nn(-c4c(C)cc(C)cc4O)cc3s2)C1 (centres unmarked) [Example 91, methyl 3-{[2-(2-hydroxy-4,6-dimethylphenyl)-2H-pyrazolo[3,4-d][1,3]thiazol-5-yl]amino}pyrrolidine-1-carboxylate]
6.34 | < 4.52 |  | Cc1cc(C)c(-n2cc3sc(N[C@H]4CN(C(=O)C5(C#N)CC5)C[C@@H]4F)nc3n2)c(O)c1 (racemic) [Example 125, racemic mixture of 1-[(3R,4R)-3-fluoro-4-{[2-(2-hydroxy-4,6-dimethylphenyl)-2H-pyrazolo[3,4-d][1,3]thiazol-5-yl]amino}pyrrolidine-1-carbonyl]cyclopropane-1-carbonitrile and 1-[(3S,4S)-3-fluoro-4-{[2-(2-hydroxy-4,6-dimethylphenyl)-2H-pyrazolo[3,4-d][1,3]thiazol-5-yl]amino}pyrrolidine-1-carbonyl]cyclopropane-1-carbonitrile]
6.60 | < 5.00 |  | Cc1cc(C)c(-n2cc3sc(NC4CCN(C(=O)OCC(Cl)(Cl)Cl)C4)nc3n2)c(O)c1 (centres unmarked) [Example 69, 2,2,2-trichloroethyl 3-{[2-(2-hydroxy-4,6-dimethylphenyl)-2H-pyrazolo[3,4-d][1,3]thiazol-5-yl]amino}pyrrolidine-1-carboxylate]
6.48 |  | < 5.00 | Cc1cc(C)c(-n2cc3sc(N[C@@H]4CC[C@@H](O)C4)nc3n2)c(O)c1 [Example 45, 2-(5-{[(1R,3R)-3-hydroxycyclopentyl]amino}-2H-pyrazolo[3,4-d][1,3]thiazol-2-yl)-3,5-dimethylphenol or 2-(5-{[(1S,3S)-3-hydroxycyclopentyl]amino}-2H-pyrazolo[3,4-d][1,3]thiazol-2-yl)-3,5-dimethylphenol (tR2)]
6.80 | < 4.52 |  | CCN1C[C@H](Nc2nc3nn(-c4c(C)cc(C)cc4O)cc3s2)[C@@H](F)C1 (racemic) [Example 21, racemic mixture of 2-(5-{[(3R,4R)-1-ethyl-4-fluoropyrrolidin-3-yl]amino}-2H-pyrazolo[3,4-d][1,3]thiazol-2-yl)-3,5-dimethylphenol and 2-(5-{[(3S,4S)-1-ethyl-4-fluoropyrrolidin-3-yl]amino}-2H-pyrazolo[3,4-d][1,3]thiazol-2-yl)-3,5-dimethylphenol]
6.26 | < 5.00 |  | Cc1cc(C)c(-n2cc3sc(NC4CCCN(S(C)(=O)=O)C4)nc3n2)c(O)c1 (centres unmarked) [Example 112, 2-(5-{[1-(methanesulfonyl)piperidin-3-yl]amino}-2H-pyrazolo[3,4-d][1,3]thiazol-2-yl)-3,5-dimethylphenol]
6.06 | < 4.52 |  | CC(=O)N1CCC(Nc2nc3nn(-c4c(C)cc(C)cc4O)cc3s2)CC1 [Example 133, 1-(4-{[2-(2-hydroxy-4,6-dimethylphenyl)-2H-pyrazolo[3,4-d][1,3]thiazol-5-yl]amino}piperidin-1-yl)ethan-1-one]
6.89 | < 4.52 |  | Cc1cc(O)c(-n2cc3sc(NCC(C)(C)O)nc3n2)c(C2CC2(F)F)c1 (centres unmarked) [Example 148]
